Data set [1] concerns the target T1, murine CCR2 (mCCR2) (Mus musculus, UniProt P51683).
T1 construct: expressed in transfected cells; host or cells: CHO cells, transient transfection (PEI) with pcDNA3.1+ plasmid; membrane preparation
Kind of data set: [3H]INCB3344 displacement assay on CHO-mCCR2 membranes. It counts as binding. The settings on record: displacement of 5 nM [3H]INCB3344, CHO-mCCR2 membranes, 25 °C. As for the experimental part: Radioligand binding assays were performed in a 100 µL reaction volume containing 50 mM Tris-HCl buffer (pH 7.4), 5 mM MgCl2, 0.1% 3-[(3-cholamidopropyl)-dimethylammonio]-1-propanesulfonic acid (CHAPS), 5 nM [^3H]INCB3344 and 50 to 60 µg of membrane protein at 25 °C. Non-specific binding was determined with 10 μM of the cold ligand INCB3344. Displacement assays were carried out using 9 concentrations of competing ligand, ranging from 0.1 nM to 100 μM, for 120 min of incubation. The kinetic parameters of 15a were also determined at 25 °C using a competition association assay as previously described, [27]. […] Filter-bound radioactivity was determined by scintillation spectrometry after addition of Microscint scintillation cocktail (Perkin-Elmer, Groningen, the Netherlands). […]
All radioligand binding assays were analyzed using Prism 6.0 (GraphPad software, San Diego, CA, USA). […] Ki values were calculated from IC50 values obtained by non-linear regression analysis of the displacement assays and by using the Cheng-Prusoff equation[47]. Dissociation rate constants k off were determined by fitting the dissociation data using an exponential decay model. […] The kinetic profile of compound 15a was determined by calculation of its kinetic rate index (KRI) value. […] In addition, the RT was calculated by obtaining the reciprocal of the k off. Data obtained from in vivo experiments are expressed as mean ± SEM. […]

Data set [2] deals with T1, murine CCR2 (mCCR2). Description: [3H]INCB3344 association, dissociation and competition association (kinetic) assays on CHO-mCCR2 membranes. It is filed as binding. As for the experimental part:
Radioligand binding assays were performed in a 100 µL reaction volume containing 50 mM Tris-HCl buffer (pH 7.4), 5 mM MgCl2, 0.1% 3-[(3-cholamidopropyl)-dimethylammonio]-1-propanesulfonic acid (CHAPS), 5 nM [^3H]INCB3344 and 50 to 60 µg of membrane protein at 25 °C. Non-specific binding was determined with 10 μM of the cold ligand INCB3344. Displacement assays were carried out using 9 concentrations of competing ligand, ranging from 0.1 nM to 100 μM, for 120 min of incubation. The kinetic parameters of 15a were also determined at 25 °C using a competition association assay as previously described, [27]. For association and competition association experiments, CHO-mCCR2 membranes were added to the reaction volume at different time points, in the absence or presence of 30 nM of competing ligand. For dissociation experiments, CHO-mCCR2 membranes were first incubated with 5 nM [^3H]INCB3344 for 60 min. Dissociation was initiated by addition of 10 µM of INCB3344 at different time points. For all experiments, incubation was terminated by dilution with ice-cold 50 mM Tris-HCl buffer supplemented with 5 mM MgCl2 and 0.05% CHAPS. Separation of bound from free radioligand was performed by rapid filtration over a 96-well GF/B filter plate using a Perkin Elmer Filtermate-harvester (Perkin Elmer, Groningen, the Netherlands) in the case of displacement assays; or over GF/B filters using a Brandel harvester 24 (Brandel, Gaithersburg, MD, USA) for kinetic assays. Filter-bound radioactivity was determined by scintillation spectrometry after addition of Microscint scintillation cocktail (Perkin-Elmer, Groningen, the Netherlands). The P-E 2450 Microbeta2 plate counter (Perkin Elmer, Groningen, The Netherlands) was used for displacement assays, and the TRI Carb 2900 TR counter (Perkin Elmer, Groningen, The Netherlands) for kinetic assays.
All radioligand binding assays were analyzed using Prism 6.0 (GraphPad software, San Diego, CA, USA). All data shown represent means ± SEM of at least three independent experiments performed in duplicate. Ki values were calculated from IC50 values obtained by non-linear regression analysis of the displacement assays and by using the Cheng-Prusoff equation[47]. Dissociation rate constants k off were determined by fitting the dissociation data using an exponential decay model. Association rate constants k on were obtained by converting the apparent association rate constants k obs according to the equation k on = (k obs − k off)/[L], in which L is the radioligand concentration used for the experiments, k obs is the constant rate determined using exponential association analysis and k off represents the mean k off value obtained independently in the dissociation experiments. The kinetic profile of compound 15a was determined by calculation of its kinetic rate index (KRI) value. The KRI values were calculated according to the equation KRI = Bt1/Bt2, in which Bt represents the specific radioligand binding measured at t1 = 15 min and t2 = 210 min. In addition, the association and dissociation rates of 15a were obtained by nonlinear regression analysis of the competition association data using the equations described by Motulsky and Mahan[27]. […] In addition, the RT was calculated by obtaining the reciprocal of the k off. Data obtained from in vivo experiments are expressed as mean ± SEM. […] Non-Gaussian distributed data were analyzed using a two-tailed Mann-Whitney U test. […]

Data set [3] concerns circulating CCR2+ monocytes. Kind of data set: Circulating blood cells (flow cytometry, hematology analyzer) in 15a treated apoE−/− mice. It is filed as in vivo, mouse. As for the experimental part: To determine the effect of the CCR2 antagonist on atherosclerotic lesion development, mice were fed a Western type diet, containing 0.25% cholesterol and 15% cocoabutter (SDS, Sussex, UK) throughout the experiment starting two week before surgery. Carotid artery plaque formation was induced by perivascular collar placement as described previously[46] and from the time of surgery, the mice received daily intraperitoneal injections containing 15a (5 mg/kg/day) or vehicle control (n = 9–10 per group). During the experiment, total body weight and weight gain were measured. Serum total cholesterol levels were determined using an enzymatic colorimetric assay according to manufacturer’s protocol (Roche Diagnostics). Precipath (standardized serum; Boehringer Mannheim, Germany) was used as an internal standard. Plasma cytokine levels were measured by ELISA according to manufacturer’s protocol (BD Biosciences). Blood was collected weekly via tail cut. Total cell count and cellular differentiation patterns in blood were analyzed using an automated XT-2000iV veterinary hematology analyzer (Sysmex Europe GMBH, Norderstedt, Germany). After erythrocyte lysis, blood leukocyte suspensions were stained for surface markers, after which their expression was determined by FACS analysis (FACS Canto, BD Biosciences). After 4 weeks of lesion development, the animals were anaesthetized and blood was collected. After in situ perfusion through the left cardiac chamber, the carotid arteries and hearts were harvested.
A general note: In flow cytometry, cells or beads pass a laser one at a time.

In data set [4] the test system is leucocyte migration towards the peritoneal cavity. Kind of data set: Pilot study: leucocyte migration towards the peritoneal cavity. It counts as in vivo, mouse. As to conditions: data not shown. As for the experimental part:
To measure plasma concentrations of 15a over time, Western type diet fed mice were injected with 5 mg/kg 15a, after which blood samples were taken at fixed time points (1, 2, 6 and 24 hours after injection). Blood samples were processed as described below under “Measurement of 15a plasma levels”. The final dose of 5 mg/kg/day was based on a pilot study in which two different doses (1.5 and 5 mg/kg/day) were tested using leucocyte migration towards the peritoneal cavity as a read-out. […] In addition, the dose of 5 mg/kg was also based on a previous study with TAK-779[38], in which a dose of 5 mg/kg was used.

The mark [5] stands for this setting: 4 weeks of treatment, 18 h after last injection.

Entries after “also recorded” stand apart in the source; their conditions may differ. Like-named read-outs stand apart in the source and are kept apart here. Bounds are passed on as bounds.

T1 sequence (P51683 whole entry): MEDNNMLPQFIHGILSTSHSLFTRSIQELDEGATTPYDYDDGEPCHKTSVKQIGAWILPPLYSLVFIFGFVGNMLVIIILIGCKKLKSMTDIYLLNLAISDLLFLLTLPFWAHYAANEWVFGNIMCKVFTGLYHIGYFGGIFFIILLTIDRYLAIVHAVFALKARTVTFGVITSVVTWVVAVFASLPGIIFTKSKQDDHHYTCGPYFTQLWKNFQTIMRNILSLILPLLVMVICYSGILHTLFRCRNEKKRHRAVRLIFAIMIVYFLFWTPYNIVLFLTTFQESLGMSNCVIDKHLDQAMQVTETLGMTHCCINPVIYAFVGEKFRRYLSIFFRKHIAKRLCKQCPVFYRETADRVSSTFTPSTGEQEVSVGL

As usually defined, the Ki is a dissociation constant, usually derived from enzyme kinetics or from competition with a known ligand. Read a high Ki as a looser hold on the target. One may read the kon as a measure of how fast the partners come together. Low readings indicate slow association, high ones fast association. In data set [1], `CC(C)[C@]1(C(=O)N2CCc3ccc(C(F)(F)F)cc3C2)CC[C@@H](N[C@@H]2CCc3cc(Br)ccc32)C1` [15a, ((1S,3R)-3-(((R)-5-bromo-2,3-dihydro-1H-inden-1-yl)amino)-1-isopropylcyclopentyl)(7-(trifluoromethyl)-3,4-dihydroisoquinolin-2(1H)-yl)methanone] had a Ki of 10.6 nM. This compound had a kon in data set [2] (mCCR2, 25 °C) of 117000 M⁻¹ s⁻¹. For the same compound, in data set [2] (mCCR2, 25 °C, KRI = Bt1/Bt2, t1 = 15 min, t2 = 210 min), the “KRI (kinetic rate index)” value stood at 1.6. Further, the Kd in data set [2] (mCCR2, 25 °C, read-out: K D (kinetic, k off/k on)) was 7.4 ± 1.5 nM. In data set [2] (mCCR2, 25 °C, read-out: k off (converted)), the koff was 0.00085 s⁻¹. For the same compound, the koff in data set [2] (mCCR2, corresponding to 0.051 min^−1, read-out: k off (as set for the simulations) (converted)) was 0.00085 s⁻¹. Besides, the “number of circulating CCR2+ monocytes” value in data set [3] (5 mg/kg/day i.p., 4 weeks, 18 hour after the last injection, controls 14.9 ± 3.2) was 4.5 ± 1.0 *10^3 cells/mL. In data set [3] (5 mg/kg/day i.p., two weeks of treatment, 2 hours after injection, controls 8.7 ± 1.2%), the “percentage of circulating CCR2+ monocytes (CD11b+Ly6Glow cells)” value came out at 1.8 ± 0.2%. For the same compound, in data set [3] (setting [5]), the “increase in the amount of CD11b+Ly6ClowCX3CR1+ monocytes” value amounted to 1.5 fold and the “ratio of patrolling CD11b+Ly6ClowCX3CR1+ versus inflammatory CD11b+Ly6ChighCCR2+ monocytes in blood” value is on record as “increased”. For the same compound, the “reduction in circulating CCR2+ monocyte numbers” value in data set [3] (at 18 hours after treatment) is more than 60%. Also, in data set [3] (at the time of sacrifice), the “circulating total white blood cell (WBCs) count” value is on record as “No differences”, the total lymphocyte numbers entry is reported as “No differences; also recorded: remained unaffected”, the total neutrophil numbers entry is given as “No differences; also recorded: remained unaffected” and the “total number of (circulating) monocytes” value is recorded as “significantly reduced”. In addition, the “bone marrow monocyte subpopulations” value in data set [3] (data not shown) is “did not observe any effects”. Further, the “number of neutrophils, CD19+ B cells, CD4+ or CD8+ T cells in blood or spleen” value in data set [3] (flow cytometry, 18 hour after the last injection, data not shown) is “did not affect”. Further, the “splenic or circulating Tregs” value in data set [3] (flow cytometry, data not shown) was “nor did we detect any effects”. For the same compound, in data set [3] (treated and untreated mice), the “percentage of circulating CCR5+ monocytes” value is listed as “did not observe any change”. For the same compound, the “effective in inhibiting leucocyte migration” value in data set [4] (1.5 mg/kg per day) is on record as “not effective”. Further, the “effective in inhibiting leucocyte migration” value in data set [4] (5 mg/kg per day) was “was”.

The values are drawn from PMC5427923, “A novel CCR2 antagonist inhibits atherogenesis in apoE deficient mice by achieving high receptor occupancy” (Scientific Reports, 2017).
